Assays:
Rattus norvegicus [1] = species: Rattus norvegicus; experiment: Displacement of [3H]NPY from rat neuropeptide Y receptor at 5 ug/ml
Rattus norvegicus [2] = species: Rattus norvegicus; experiment: Displacement of [125I]somatostatin from rat somatostatin receptor at 5 ug/ml
[3] = biological target: B2 bradykinin receptor (Homo sapiens) (UniProt P30411); experiment: Displacement of [3H]bradykinin from human B2 bradykinin receptor expressed in SF21 cells at 5 ug/ml
B2 bradykinin receptor (Homo sapiens), sequence (P30411 whole entry, looked up): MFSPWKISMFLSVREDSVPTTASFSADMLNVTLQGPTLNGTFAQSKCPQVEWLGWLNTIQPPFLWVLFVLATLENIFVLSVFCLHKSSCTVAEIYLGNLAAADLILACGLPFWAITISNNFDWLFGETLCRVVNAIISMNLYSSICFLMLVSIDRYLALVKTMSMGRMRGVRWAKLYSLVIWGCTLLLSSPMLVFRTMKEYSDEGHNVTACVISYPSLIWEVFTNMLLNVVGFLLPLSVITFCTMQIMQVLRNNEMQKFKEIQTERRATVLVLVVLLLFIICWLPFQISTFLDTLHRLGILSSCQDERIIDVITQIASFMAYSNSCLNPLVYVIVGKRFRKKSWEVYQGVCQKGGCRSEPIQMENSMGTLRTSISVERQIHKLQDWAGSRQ

Compound: C[C@H](NC(=O)[C@@]1(O)[C@H](CCNC(=N)N)[C@@](O)(CCCNC(=N)N)C(=O)N1CC(=O)N/C=C/c1ccc(O)cc1)C(=O)N/C=C/c1ccc(O)cc1
- Activity (Rattus norvegicus [1]): 57%
- Activity (Rattus norvegicus [2]): 62%
- Activity [3]: 52%

Compound: N=C(N)NCCC[C@@]1(O)C(=O)N(CC(=O)N/C=C/c2ccc(O)cc2)[C@@](O)(C(=O)NCC(=O)N/C=C/c2ccc(O)cc2)[C@@H]1CCNC(=N)N
- Activity (Rattus norvegicus [2]): 77%

Compound: C[C@@H](C(=O)N/C=C/c1ccc(O)cc1)N1C(=O)[C@](O)(CCCNC(=N)N)[C@@H](CCNC(=N)N)[C@]1(O)C(=O)NCC(=O)N/C=C/c1ccc(O)cc1
- Activity (Rattus norvegicus [1]): 80%
- Activity [3]: 71%

Compound: C[C@H](NC(=O)[C@@]1(O)[C@H](CCNC(=N)N)[C@@](O)(CCCNC(=N)N)C(=O)N1[C@@H](C)C(=O)N/C=C/c1ccc(O)cc1)C(=O)N/C=C/c1ccc(O)cc1
- Activity (Rattus norvegicus [1]): 35%
- Activity (Rattus norvegicus [2]): 35%
- Activity [3]: 35%
